Test results published in the NIST ThermoML archive (doi:10.1016/j.fluid.2004.12.009).

Tests used:
[1] = xn = mol fraction of the nth substance listed; conditions: 298.15 K, Drop volume
[2] = 298.15 K, Drop volume

CCCOC(=O)CC [propyl propanoate] + Cc1cccc(C)c1
[1]
Conditions | surface tension liquid-gas [mN/m]
x1 = 0.0621 | 27.69
x1 = 0.0989 | 27.5
x1 = 0.1636 | 27.19
x1 = 0.2293 | 26.88
x1 = 0.2608 | 26.74
x1 = 0.3264 | 26.45
x1 = 0.4215 | 26.07
x1 = 0.6132 | 25.34
x1 = 0.7485 | 24.86
x1 = 0.7827 | 24.74
x1 = 0.8542 | 24.52
x1 = 0.8896 | 24.41

CCCOC(=O)CC [propyl propanoate] + Cc1ccc(C)cc1
[1]
Conditions | surface tension liquid-gas [mN/m]
x1 = 0.061 | 27.46
x1 = 0.0898 | 27.35
x1 = 0.1545 | 27.09
x1 = 0.2219 | 26.82
x1 = 0.2558 | 26.69
x1 = 0.3257 | 26.42
x1 = 0.388 | 26.18
x1 = 0.4204 | 26.07
x1 = 0.4851 | 25.83
x1 = 0.5211 | 25.71
x1 = 0.5809 | 25.5
x1 = 0.6209 | 25.38
x1 = 0.6846 | 25.17
x1 = 0.7187 | 25.07
x1 = 0.7976 | 24.82
x1 = 0.8562 | 24.62
x1 = 0.8779 | 24.56
x1 = 0.9544 | 24.28

Cc1ccc(C)cc1 [1,4-dimethylbenzene]
Conditions | surface tension liquid-gas [mN/m]
[2] | 27.7

Cc1cccc(C)c1 [1,3-dimethylbenzene]
Conditions | surface tension liquid-gas [mN/m]
[2] | 28.03

CCCOC(=O)CC [propyl propanoate] + Cc1ccccc1C
[1]
Conditions | surface tension liquid-gas [mN/m]
x1 = 0.0587 | 28.88
x1 = 0.0915 | 28.66
x1 = 0.1548 | 28.27
x1 = 0.2236 | 27.85
x1 = 0.2531 | 27.68
x1 = 0.3216 | 27.3
x1 = 0.3862 | 26.95
x1 = 0.4212 | 26.77
x1 = 0.4836 | 26.45
x1 = 0.517 | 26.29
x1 = 0.5814 | 25.98
x1 = 0.6503 | 25.64
x1 = 0.6829 | 25.49
x1 = 0.7507 | 25.17
x1 = 0.7823 | 25.03
x1 = 0.8909 | 24.54
x1 = 0.9636 | 24.23

Cc1ccccc1C [1,2-dimethylbenzene]
Conditions | surface tension liquid-gas [mN/m]
[2] | 29.27

CCCOC(=O)CC [propyl propanoate]
Conditions | surface tension liquid-gas [mN/m]
[2] | 24.1
